In patent publication EP4810498A1, “MEDICATION FOR TREATING SEVERE MALARIA AND SYNTHESIS METHOD THEREFOR” (Institute of Chinese Materia Medica, China Academy of …, priority 2023, dated 2025):
One block for each compound: values may come before it.

Tests used:
[1] = system: Plasmodium berghei ANKA strain; assay: Survival rate of cerebral malaria model mice; type: in vivo, C57BL/6J mice; details: nasal drip, four consecutive days, 28 days of observation
From the text: (§1) Experimental study on the antimalarial activity of Artesunazine (Example Ia-1) in vitro and vivo. I. Protection of Artesunazine on mice infected by Plasmodium berghei ANKA strain. (I) Experimental materials: • 1. Animals: C57BL/6J, weighing 16-18 g, 10 in each group, 50 in total. • 2. Plasmodium strain: Plasmodium berghei ANKA strain, donated by Professor Zhao Ya of Air Force Medical University of the People's Liberation Army of China (The Fourth Military Medical University), was preserved in our laboratory by blood transmission or freezing. • 3. Drugs and preparation methods: Artesunazine and a positive control drug artesunate were dissolved in a mixed solvent of polyethylene glycol 400 (PEG400) and water (PEG400:water=4:1), serving as a preparation for immediate use. (II) Experimental methods • 1. Plasmodium resuscitation and passage: A Plasmodium berghei ANKA strain frozen in liquid nitrogen was taken out and placed in a water bath kettle at 37°C. After melting, it was immediately intraperitoneally inoculated into C57BL/6J mice (0.2 mL/mouse). When the infection rate of the breeding mice reached 15-30%, their eyeballs were removed and blood was collected in an anticoagulant tube. After shaking well, the blood was transmitted to offspring C57BL/6J mice with a 1 mL syringe at an injection dose of 0.2 mL/mouse. • 2. Plasmodium inoculation: C57BL/6J mice were weighed and fed adaptively. When the infection rate of offspring C57BL/6J mice reached 15-30%, the total number of red blood cells and the number of pRBCs were counted after their eyeballs were removed and blood was collected. The blood was injected intraperitoneally into model group C57BL/6J mice at an injection dose of 0.2 mL (including 1×10^7 pRBCs) per mouse, which was the 0th day (D0) of inoculation. • 3. Animal grouping: After inoculation, the experimental mice were randomly divided into 5 groups, including a model (M) group, high, medium and low dose Artesunazine groups (i.e., 40 mg/kg, 20 mg/kg, and 10 mg/kg Artesunazine), and an artesunate group (i.e., 15.6 mg/kg AS, clinically equivalent dose). The dosage of the medium dose Artesunazine group (20mg/kg Artesunazine) is equivalent to that of the artesunate group (15.6 mg/kg). There are 10 mice in each group, a total of 50 mice. • 4. Determination of survival rate From the 0th day of inoculation, the death of mice was observed every day for 28 consecutive days. Survival rate = (Number of surviving mice)/(Number of experimental mice) × 100% [formula] • 5. Determination of recurrence rate After inoculation, the mice were randomly divided into groups and administered via nasal drip for 3 h. […] The mouse recurrence rate was calculated by the ratio of the number of mice with recurrence to the total number of mice. […]

[2] = system: Plasmodium berghei ANKA strain; assay: Recurrence rate of cerebral malaria model mice (blood smear); type: in vivo, C57BL/6J mice
From the text: Experimental study on the antimalarial activity of Artesunazine (Example Ia-1) in vitro and vivo. I. Protection of Artesunazine on mice infected by Plasmodium berghei ANKA strain. (I) Experimental materials: • 1. Animals: C57BL/6J, weighing 16-18 g, 10 in each group, 50 in total. • 2. Plasmodium strain: Plasmodium berghei ANKA strain, donated by Professor Zhao Ya of Air Force Medical University of the People's Liberation Army of China (The Fourth Military Medical University), was preserved in our laboratory by blood transmission or freezing. • 3. Drugs and preparation methods: Artesunazine and a positive control drug artesunate were dissolved in a mixed solvent of polyethylene glycol 400 (PEG400) and water (PEG400:water=4:1), serving as a preparation for immediate use. (II) Experimental methods • 1. Plasmodium resuscitation and passage: A Plasmodium berghei ANKA strain frozen in liquid nitrogen was taken out and placed in a water bath kettle at 37°C. After melting, it was immediately intraperitoneally inoculated into C57BL/6J mice (0.2 mL/mouse). When the infection rate of the breeding mice reached 15-30%, their eyeballs were removed and blood was collected in an anticoagulant tube. After shaking well, the blood was transmitted to offspring C57BL/6J mice with a 1 mL syringe at an injection dose of 0.2 mL/mouse. • 2. Plasmodium inoculation: C57BL/6J mice were weighed and fed adaptively. When the infection rate of offspring C57BL/6J mice reached 15-30%, the total number of red blood cells and the number of pRBCs were counted after their eyeballs were removed and blood was collected. The blood was injected intraperitoneally into model group C57BL/6J mice at an injection dose of 0.2 mL (including 1×10^7 pRBCs) per mouse, which was the 0th day (D0) of inoculation. • 3. Animal grouping: After inoculation, the experimental mice were randomly divided into 5 groups, including a model (M) group, high, medium and low dose Artesunazine groups (i.e., 40 mg/kg, 20 mg/kg, and 10 mg/kg Artesunazine), and an artesunate group (i.e., 15.6 mg/kg AS, clinically equivalent dose). The dosage of the medium dose Artesunazine group (20mg/kg Artesunazine) is equivalent to that of the artesunate group (15.6 mg/kg). There are 10 mice in each group, a total of 50 mice. • 4. Determination of survival rate From the 0th day of inoculation, the death of mice was observed every day for 28 consecutive days. Survival rate = (Number of surviving mice)/(Number of experimental mice) × 100% [formula] • 5. Determination of recurrence rate After inoculation, the mice were randomly divided into groups and administered via nasal drip for 3 h. After four consecutive days of administration, blood smear test began at D4. A small drop of blood was taken from the tail tip of a mouse and dropped onto a glass slide. The blood drop was pushed to one end at a certain angle with the edge of another glass slide to make a thin blood film with appropriate thickness. After the thin blood film was air-dried, it was fixed with methanol and placed until completely air-dried. After a Giemsa stain solution was diluted at a ratio of 1:9 for staining (completely covering the fixed thin blood film) for 20 min, the thin blood film was rinsed under a faucet, and the water on the surface of the film was quickly absorbed with filter paper. A drop of cedar oil was dropped onto a glass slide for examination under a 100x oil microscope to count the number of parasitized red blood cells contained in 1000 red blood cells. The mouse recurrence rate was calculated by the ratio of the number of mice with recurrence to the total number of mice. Recurrence rate = (Number of mice with recurrence)/(Number of experimental mice) × 100% [formula] • 6. RMCBS score determination A rapid mouse coma behavior scale (RMCBS) was used to evaluate the neurological function of experimental mice. […]

[3] = system: Plasmodium berghei ANKA strain; assay: Rapid mouse coma behavior scale (RMCBS) score of cerebral malaria model mice; type: in vivo, C57BL/6J mice
From the text: as §1

[4] = system: Plasmodium berghei ANKA strain; assay: Anal temperature of cerebral malaria model mice; type: in vivo, C57BL/6J mice; details: compared with the AS group (P<0.001)
From the text: Experimental study on the antimalarial activity of Artesunazine (Example Ia-1) in vitro and vivo. I. Protection of Artesunazine on mice infected by Plasmodium berghei ANKA strain. (I) Experimental materials: • 1. Animals: C57BL/6J, weighing 16-18 g, 10 in each group, 50 in total. • 2. Plasmodium strain: Plasmodium berghei ANKA strain, donated by Professor Zhao Ya of Air Force Medical University of the People's Liberation Army of China (The Fourth Military Medical University), was preserved in our laboratory by blood transmission or freezing. • 3. Drugs and preparation methods: Artesunazine and a positive control drug artesunate were dissolved in a mixed solvent of polyethylene glycol 400 (PEG400) and water (PEG400:water=4:1), serving as a preparation for immediate use. (II) Experimental methods • 1. Plasmodium resuscitation and passage: A Plasmodium berghei ANKA strain frozen in liquid nitrogen was taken out and placed in a water bath kettle at 37°C. After melting, it was immediately intraperitoneally inoculated into C57BL/6J mice (0.2 mL/mouse). […] When the infection rate of offspring C57BL/6J mice reached 15-30%, the total number of red blood cells and the number of pRBCs were counted after their eyeballs were removed and blood was collected. […] The mouse recurrence rate was calculated by the ratio of the number of mice with recurrence to the total number of mice. […]

[5] = system: Plasmodium berghei ANKA strain; assay: Body weight of cerebral malaria model mice; type: in vivo, C57BL/6J mice
From the text: as §1

[6] = system: Plasmodium falciparum 3D7; assay: SYBR Green assay, growth inhibition of Plasmodium falciparum cultured in vitro; type: cell-based; details: Plasmodium falciparum standard strain 3D7, cultured for 72 h; read-out: IC50
Protocol: Plasmodium falciparum in the ring stage was synchronized. Smearing was carried out and the infection rate was counted. The synchronized parasitized red blood cells, healthy red blood cells and mediums were matched in a reasonable ratio, resulting in an in vitro culture system of plasmodia (ring bodies, 2 to 4 hours-old) with a hematocrit of 2% and an infection rate of 1%. […] A1-A10 was paved with 25 µl of drugs (with 8 complex wells for each drug) and mixed evenly, and then diluted in multiple proportions (Ax-Hx). Except for A12-H12, 50 µL of a plasmodium culture solution was spread in all the other wells; and A12-H12 was spread with 50 µl of healthy red blood cells (in the medium with a hematocrit of 2%). […] 100 µl of a lysis buffer was added to each of the wells and put into a drawer to avoid light for 1 h.
In this experiment, SYBR Green assay was used to determine the median inhibitory concentration (IC50) value of the drug for treating Plasmodium falciparum 3D7. Nonlinear regression was used to calculate the value by means of software graphpad prism 8.0 (the value was equal to average value plus or minus standard error), and a four-parameter logistic fitting curve was used. Each value in the curve was equal to average value plus or minus standard error in eight biological repetitive experiments.

[7] = 80% polyethylene glycol 400 solution, 40°C, dark
Protocol: 160.2 mg of Artesunazine was weighed and put into a penicillin bottle, 8 mL of a 80% polyethylene glycol 400 solution was added, and the Artesunazine was completely dissolved by ultrasonic treatment, resulting in about 20.25 mg/mL Artesunazine solution. Subsequently, the penicillin bottle filled with the solution was sealed, covered with aluminum foil paper for light avoidance treatment, and placed in a stability test box at 40°C; and 0.5 mL to 25 mL of the solution was sampled into volumetric flasks on days 0, 3, 7, and 10, respectively. After diluting with methanol and shaking well, the content of the Artesunazine was determined by an ultra performance liquid chromatography (UPLC) method.
The UPLC determination conditions for the Artesunazine are as follows: Instrument: ultra performance liquid chromatography Waters ACQUITY UPLC, chromatographic column: ACQUITY UPLC HSS T3 Column (100 Å, 1.8 µm, 2.1 mm×100 mm), detection wavelength: 295 nm, mobile phase: acetonitrile-0.1% phosphoric acid water (35:65), flow rate: 0.3 ml/min, column temperature: 30°C, sample room temperature: 25°C, injection volume: 3 µL. […]

Compound: Cc1nc(C)c(COC(=O)CCC(=O)OC2OC3OC4(C)CCC5C(C)CCC(C2C)C35OO4)nc1C [Compound Ia-1, (3R, 5aS, 6R, 9R, 10R, 12R, 12aR)-3,6,9-trimethyldecahydro-12h-3, 12-epoxy [1, 2] dioxopyran [4,3-i] isobenzopyran-10-yl ((3,5,6-trimethylpyrazine-2-yl)methyl) succinate]
survival rate ([1]; 10 mg/kg Artesunazine (low dose)): 50%
survival rate ([1]; 20 mg/kg Artesunazine (medium dose)): 90%
survival rate ([1]; 40 mg/kg Artesunazine (high dose)): 100%
Recurrence rate (%) D4 ([2]; 10 mg/kg): 10%
Recurrence rate (%) D7 ([2]; 10 mg/kg, D7): 80%
Recurrence rate (%) D28 ([2]; 10 mg/kg): 100%
Recurrence rate (%) D4 ([2]; 20 mg/kg): 0%
Recurrence rate (%) D28 ([2]; 20 mg/kg): 10%
Recurrence rate (%) D4 ([2]; 40 mg/kg): 0%
Recurrence rate (%) D28 ([2]; 40 mg/kg): 10%
RMCBS score ([3]; 10 mg/kg): 18.40±0.48 points
RMCBS score ([3]; 20 mg/kg): around 20 points
RMCBS score ([3]; 40 mg/kg): around 20 points
temperature ([4]; 20 mg/kg): better maintained the temperature
temperature ([4]; 40 mg/kg): better maintained the temperature
body weight ([5]; 10 mg/kg, at the end of the observation): 16.66±0.45
body weight ([5]; 20 mg/kg, throughout the observation period): no significant decrease
body weight ([5]; 40 mg/kg, throughout the observation period): no significant decrease
IC50 [6]: 0.00736 µM
color of the solution [7]: basically unchanged

Compound: Cc1nc(C)c(COC(=O)CC(=O)OC2OC3OC4(C)CCC5C(C)CCC(C2C)C35OO4)nc1C [Compound Ia-2, (3R, 5aS, 6R, 9R, 10R, 12R, 12aR)-3,6,9-trimethyldecahydro-12h-3, 12-epoxy [1, 2] dioxopyran [4,3-i] isobenzopyran-10-yl ((3,5,6-trimethylpyrazine-2-yl)methyl) malonate]
IC50 [6]: 0.0125 µM

Compound: Cc1nc(C)c(COC(=O)CCCC(=O)OC2OC3OC4(C)CCC5C(C)CCC(C2C)C35OO4)nc1C [Compound Ia-4, (3R, 5aS, 6R, 9R, 10R, 12R, 12aR)-3,6,9-trimethyldecahydro-12h-3, 12-epoxy [1, 2] dioxopyran [4,3-i] isobenzopyran-10-yl ((3,5,6-trimethylpyrazine-2-yl)methyl) glutarate]
IC50 [6]: 0.0339 µM

Now from value to compound:

IC50 [6]: 0.00295 µM
Compound: Cc1nc(C)c(COC(=O)CCCCCC(=O)OC2OC3OC4(C)CCC5C(C)CCC(C2C)C35OO4)nc1C [Compound Ia-5, (3R, 5aS, 6R, 9R, 10R, 12R, 12aR)-3,6,9-trimethyldecahydro-12h-3, 12-epoxy [1, 2] dioxopyran [4,3-i] isobenzopyran-10-yl ((3,5,6-trimethylpyrazine-2-yl)methyl) pimelate]

IC50 [6]: 0.0143 µM
Compound: Cc1nc(C)c(COC(=O)CCCCC(=O)OC2OC3OC4(C)CCC5C(C)CCC(C2C)C35OO4)nc1C [Compound Ia-6, (3R, 5aS, 6R, 9R, 10R, 12R, 12aR)-3,6,9-trimethyldecahydro-12h-3, 12-epoxy [1, 2] dioxopyran [4,3-i] isobenzopyran-10-yl ((3,5,6-trimethylpyrazine-2-yl)methyl) adipate]

IC50 [6]: 0.0507 µM
Compound: Cc1nc(C)c(COC(=O)CCCCCCC(=O)OC2OC3OC4(C)CCC5C(C)CCC(C2C)C35OO4)nc1C [Compound Ia-7, (3R, 5aS, 6R, 9R, 10R, 12R, 12aR)-3,6,9-trimethyldecahydro-12h-3, 12-epoxy [1, 2] dioxopyran [4,3-i] isobenzopyran-10-yl ((3,5,6-trimethylpyrazine-2-yl)methyl) suberate]
